Drawing on PubChem BioAssay (NCI), this text covers GI50 and TGI for 14 molecules.

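48-hour exposure; five concentrations; linearly interpolated endpoints. GI50: concentration for 50% inhibition of growth. TGI denotes the concentration required for complete inhibition of growth.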

Test systems include COLO 205 colon; HOP-92 NSCLC; ACHN renal; SNB-75 CNS; NCI-H226 lung; HCT-116 colon; OVCAR-5 ovarian; M14 melanoma; SW-620 colon; SK-OV-3 ovarian.
What all share (test): NCI tumour cell line growth inhibition, 48 h

Turning to `CN(C)C(=O)/N=c1\ss/c(=N\C(=S)N(C)C)n1-c1ccccc1`, the GI50 in the experiment on COLO 205 colon is 0.306 µM. In addition, the TGI in the experiment on COLO 205 colon was above 100 µM; with HOP-92 NSCLC, above 100 µM; in the experiment with ACHN renal, above 100 µM; in the experiment with SNB-75 CNS, 71.1 µM; with NCI-H226 lung, above 100 µM; in the experiment with HCT-116 colon, 47.1 µM. Besides, the TGI in the experiment with OVCAR-5 ovarian was above 100 µM; in the experiment on M14 melanoma, above 74.5 µM; in the experiment with SW-620 colon, above 100 µM; with SK-OV-3 ovarian, above 100 µM.
For the molecule `CN(C)CCCN(c1nc(C(Cl)(Cl)Cl)ns1)c1nc(C(Cl)(Cl)Cl)ns1`, the GI50 in the experiment with COLO 205 colon was 1.47 µM; in the experiment on HOP-92 NSCLC, 1.64 µM; with ACHN renal, 1.77 µM; with SNB-75 CNS, 2.17 µM; in the experiment on NCI-H226 lung, 1.72 µM; in the experiment on HCT-116 colon it was 1.66 µM. Moreover, the GI50 is 1.82 µM with OVCAR-5 ovarian, 1.89 µM in the experiment with M14 melanoma, 1.67 µM in the experiment on SW-620 colon and 1.88 µM in the experiment with SK-OV-3 ovarian. Besides, the TGI was determined as 2.85 µM in the experiment on COLO 205 colon; 5.33 µM with HOP-92 NSCLC; 3.53 µM in the experiment with ACHN renal; 7.89 µM with SNB-75 CNS; 3.42 µM with NCI-H226 lung; 3.34 µM in the experiment with HCT-116 colon. Also, the TGI turned out to be 3.8 µM in the experiment with OVCAR-5 ovarian, 3.63 µM with M14 melanoma, 3.18 µM with SW-620 colon and 4 µM with SK-OV-3 ovarian.
As for `COC(=O)C(=O)C(C(=O)C(=O)Nc1ccc(Cl)cc1C)c1nc2ccc(C(=O)c3ccccc3)cc2[nH]c1=O` (configuration not stated), the TGI with COLO 205 colon, in the experiment on HOP-92 NSCLC, in the experiment with ACHN renal, with SNB-75 CNS, in the experiment with NCI-H226 lung and in the experiment on HCT-116 colon was above 100 µM each time. The TGI in the experiment with OVCAR-5 ovarian, in the experiment on M14 melanoma, in the experiment with SW-620 colon and with SK-OV-3 ovarian was above 100 µM each time.
Regarding `CN[C@]12CC3(C=CC(=O)C=C3)O[C@@]1(Cc1ccc(OC)cc1)N(C)C(=O)N2`, the GI50 with COLO 205 colon was 2.53 µM; with HOP-92 NSCLC, 2.15 µM; in the experiment with ACHN renal it was 1.67 µM; in the experiment with SNB-75 CNS, 10.4 µM; in the experiment with NCI-H226 lung it was 3.46 µM; in the experiment on HCT-116 colon, 0.812 µM. Also, the GI50 with OVCAR-5 ovarian was 2.21 µM; with M14 melanoma, 1.99 µM; in the experiment on SW-620 colon, 2.1 µM; in the experiment with SK-OV-3 ovarian it was 5.12 µM. Also, the TGI came to 6.66 µM in the experiment on COLO 205 colon; 4.73 µM with HOP-92 NSCLC; 4 µM in the experiment on ACHN renal; 23.3 µM with SNB-75 CNS; 15.9 µM in the experiment on NCI-H226 lung; 7.98 µM with HCT-116 colon. Moreover, the TGI in the experiment with OVCAR-5 ovarian stood at 5.59 µM; with M14 melanoma, 7.6 µM; in the experiment on SW-620 colon, 6.99 µM; in the experiment on SK-OV-3 ovarian, 44.2 µM.
As for `COc1ccc(/C(C)=C(\c2ccc(Cl)cc2)c2ccc(OCCN3CCCC3)cc2)cc1F`, the GI50 was 2.16 µM with COLO 205 colon; 3.12 µM with HOP-92 NSCLC; 4.06 µM in the experiment on ACHN renal; 4.42 µM in the experiment on SNB-75 CNS; 4.47 µM in the experiment with NCI-H226 lung; 2.05 µM in the experiment with HCT-116 colon. The GI50 is 3.15 µM in the experiment with OVCAR-5 ovarian, 0.882 µM in the experiment on M14 melanoma, 2.5 µM with SW-620 colon and 4.18 µM in the experiment on SK-OV-3 ovarian. Moreover, the TGI turned out to be 7.49 µM in the experiment with COLO 205 colon; 6.63 µM in the experiment with HOP-92 NSCLC; 7.44 µM with ACHN renal; 8.22 µM with SNB-75 CNS; 8.88 µM in the experiment with NCI-H226 lung; 5.64 µM with HCT-116 colon. Besides, the TGI came out at 6.37 µM in the experiment with OVCAR-5 ovarian, 3.09 µM in the experiment with M14 melanoma, 5.68 µM in the experiment with SW-620 colon and 7.86 µM in the experiment with SK-OV-3 ovarian.
For the molecule `Cc1cccc2c(N=Nc3ccc(S(N)(=O)=O)cc3)c(O)[nH]c12`, the GI50 in the experiment with COLO 205 colon, in the experiment with HOP-92 NSCLC, with ACHN renal, with SNB-75 CNS, in the experiment with NCI-H226 lung and with HCT-116 colon was above 25 µM throughout. Moreover, the GI50 with OVCAR-5 ovarian, in the experiment with M14 melanoma, in the experiment with SW-620 colon and in the experiment on SK-OV-3 ovarian was above 25 µM throughout. In addition, the TGI in the experiment on COLO 205 colon, in the experiment with HOP-92 NSCLC, with ACHN renal, in the experiment with SNB-75 CNS, in the experiment on NCI-H226 lung and with HCT-116 colon was above 25 µM throughout. The TGI in the experiment on OVCAR-5 ovarian, in the experiment with M14 melanoma, in the experiment with SW-620 colon and in the experiment on SK-OV-3 ovarian was above 25 µM in each case.
In the case of `CC(=O)Nc1ccc(C(=O)NN2C(=O)C(Cl)C2c2cc(Br)ccc2O)cc1` (configuration not stated), the TGI in the experiment with COLO 205 colon is above 100 µM; in the experiment on HOP-92 NSCLC, above 100 µM; in the experiment on ACHN renal, above 100 µM; in the experiment on SNB-75 CNS, above 100 µM; in the experiment on NCI-H226 lung, 36.1 µM; in the experiment with HCT-116 colon, above 100 µM. For the same molecule, the TGI was above 100 µM in the experiment with OVCAR-5 ovarian, 45.5 µM in the experiment on M14 melanoma, above 100 µM in the experiment on SW-620 colon and above 100 µM in the experiment on SK-OV-3 ovarian.
As to `O=c1cc(-c2ccc(Cl)cc2)[nH]c2ncccc12`, the TGI in the experiment with COLO 205 colon is 83 µM; in the experiment on HOP-92 NSCLC, above 100 µM; with ACHN renal, above 100 µM; with SNB-75 CNS, above 100 µM; with NCI-H226 lung, above 100 µM; in the experiment with HCT-116 colon it was above 100 µM. Also, the TGI in the experiment on OVCAR-5 ovarian, in the experiment with M14 melanoma, in the experiment on SW-620 colon and in the experiment with SK-OV-3 ovarian was above 100 µM in each case. Besides, the GI50 in the experiment with HCT-116 colon is 32.1 µM.
For `O=C(Nc1n[nH]c2nc(-c3ccco3)ccc12)C1CC1`, the GI50 was above 25 µM in the experiment with COLO 205 colon; above 7.9 µM in the experiment with HOP-92 NSCLC; above 25 µM in the experiment with ACHN renal; above 25 µM in the experiment on SNB-75 CNS; above 25 µM in the experiment on NCI-H226 lung; above 25 µM in the experiment on HCT-116 colon. Moreover, the GI50 in the experiment on OVCAR-5 ovarian, with M14 melanoma, in the experiment on SW-620 colon and in the experiment on SK-OV-3 ovarian was above 25 µM throughout. Further, the TGI was above 25 µM with COLO 205 colon; above 7.9 µM with HOP-92 NSCLC; above 25 µM with ACHN renal; above 25 µM in the experiment with SNB-75 CNS; above 25 µM with NCI-H226 lung; above 25 µM with HCT-116 colon. Also, the TGI in the experiment with OVCAR-5 ovarian, in the experiment with M14 melanoma, with SW-620 colon and with SK-OV-3 ovarian was above 25 µM throughout.
In the case of `C=C1C(=O)O[C@@H]2C(=O)[C@@H](C)[C@@H]3C=CC(=O)[C@@]3(C)[C@@H](OC(=O)/C(C)=C\C)[C@H]12`, the TGI with COLO 205 colon was found to be 0.725 µM; in the experiment on HOP-92 NSCLC, 1.43 µM; in the experiment with ACHN renal, 0.609 µM; in the experiment on SNB-75 CNS, 19.9 µM; in the experiment on NCI-H226 lung, 8.36 µM; in the experiment with HCT-116 colon, 0.681 µM. Also, the TGI is 4.69 µM with OVCAR-5 ovarian, 8.2 µM with M14 melanoma, 1.76 µM with SW-620 colon and 26.9 µM with SK-OV-3 ovarian.
For the molecule `C=C[C@]1(C)CCC2=C(CCC3C2(C)CCC[C@]3(C)CO)C1` (some centres not stated), the TGI in the experiment on COLO 205 colon, in the experiment on HOP-92 NSCLC, in the experiment on ACHN renal, with SNB-75 CNS, in the experiment with NCI-H226 lung and with HCT-116 colon was above 100 µM throughout. Besides, the TGI in the experiment on OVCAR-5 ovarian, in the experiment on M14 melanoma, with SW-620 colon and in the experiment on SK-OV-3 ovarian was above 100 µM throughout.
As for `O=C1/C(=C\C(Cl)=C/c2ccc([N+](=O)[O-])cc2)SC(=S)N1CCc1ccc(O)cc1`, the GI50 with COLO 205 colon was 0.882 µM; with HOP-92 NSCLC, 1.6 µM; with ACHN renal, 0.249 µM; in the experiment on SNB-75 CNS, 1.08 µM; in the experiment on NCI-H226 lung, 1.35 µM; in the experiment with HCT-116 colon, 0.201 µM. In addition, the GI50 was 0.447 µM in the experiment on OVCAR-5 ovarian, 0.494 µM in the experiment on M14 melanoma, 0.324 µM with SW-620 colon and 2.59 µM in the experiment with SK-OV-3 ovarian. Also, the TGI with COLO 205 colon is 3.64 µM; in the experiment with HOP-92 NSCLC, 3.29 µM; with ACHN renal, 0.584 µM; in the experiment with SNB-75 CNS, 2.35 µM; in the experiment with NCI-H226 lung, 3.48 µM; with HCT-116 colon, 0.455 µM. Also, the TGI with OVCAR-5 ovarian worked out at 1.53 µM; in the experiment on M14 melanoma, 1.84 µM; in the experiment on SW-620 colon, 1.26 µM; in the experiment on SK-OV-3 ovarian it was 6.42 µM.
`CCCCCCCC/C=C/CCCCCCCC1=NC(C)(C)CN1C(C)C`: the GI50 is 0.516 µM in the experiment on COLO 205 colon; 0.819 µM in the experiment with HOP-92 NSCLC; 1.65 µM with ACHN renal; 1.56 µM in the experiment with SNB-75 CNS; 1.75 µM in the experiment with NCI-H226 lung; 1.4 µM in the experiment with HCT-116 colon. The GI50 with OVCAR-5 ovarian was 1.54 µM; with M14 melanoma it was 1.53 µM; in the experiment on SW-620 colon it was 1.59 µM; in the experiment with SK-OV-3 ovarian it was 1.32 µM. Further, the TGI is 2.09 µM in the experiment on COLO 205 colon; 2.6 µM with HOP-92 NSCLC; 3.01 µM in the experiment with ACHN renal; 2.9 µM in the experiment with SNB-75 CNS; 4.52 µM in the experiment on NCI-H226 lung; 2.7 µM in the experiment on HCT-116 colon. For the same molecule, the TGI stood at 2.88 µM in the experiment on OVCAR-5 ovarian, 2.86 µM in the experiment on M14 melanoma, 2.94 µM in the experiment with SW-620 colon and 2.59 µM in the experiment on SK-OV-3 ovarian.
Turning to `NC(CNO)C(=O)O` (configuration not stated), the TGI with COLO 205 colon, in the experiment with HOP-92 NSCLC, in the experiment on ACHN renal, with SNB-75 CNS, with NCI-H226 lung and in the experiment on HCT-116 colon was above 100 µM in each case. For the same molecule, the TGI in the experiment with OVCAR-5 ovarian, in the experiment with M14 melanoma, with SW-620 colon and with SK-OV-3 ovarian was above 100 µM each time.
